Test results taken from US11795404B2, “Composition for removing sulfur-containing compounds” (KURARAY CO., LTD., priority 2018, dated 2023).

Assays:
[1] = Sulfur-containing compound removal reaction, BuSH in liquid hydrocarbon (GC-SCD); conditions: BuSH 50 μL (1000 ppm by volume) in kerosene 50 mL; aldehyde 250 μL; room temperature; reaction time 1 day
Method: In a 100 mL three-neck flask, 50 mL of kerosene was put and 50 μL (1000 ppm by volume, 0.46 mmol) of BuSH was added thereto to obtain a kerosene solution containing a sulfur-containing compound.
Next, 250 μL (2.59 mmol) of SAL and 250 μL (1.71 mmol) of DBU were added to the kerosene solution, and the solution was stirred at room temperature (20° C.±5° C., the same applies hereinafter) and at 800 rpm to perform a sulfur-containing compound removal reaction.
After 1-day reaction, the mercaptan concentration of the liquid phase in the three-neck flask was measured.
The mercaptan concentration of the liquid phase was measured using a calibration curve method by gas chromatography. The gas chromatography was performed under the following conditions.
Analyzer: GC-SCD (manufactured by Agilent Technologies Japan, Ltd.)
Detector: sulfur chemiluminescence detector (SCD)
Column: DB-sulfur SCD (length: 60 m, thickness: 4.2 μm, inner diameter: 0.32 mm) (manufactured by Agilent Technologies Japan, Ltd.)
Analytical conditions: inject. temp. 250° C., detect. temp. 250° C.
Temperature rise condition: 35° C. (kept for 3 minutes) (raised at 10° C./min)→250° C. (kept for 15 minutes)
Internal Standard Substance: diphenyl sulfide
A sulfur-containing compound removal reaction was performed in the same manner as in Example 3 except that crude oil was used in place of kerosene.

[2] = conjugate acid in water at 25° C.; cited from earlier work

## CC(C)=CC=O [Comparative Example 1, Senecioaldehyde]
[1]
  Removal rate: <10%

## C=CC=O [Comparative Example 4, Acrolein]
[1]
  Removal rate: 15%

## C1CCC2=NCCCN2CC1 [DBU, 1,8-Diazabicyclo[5.4.0]-7-undecene]
[2]
  pKa: 11.5

## CN(C)CCN(C)CCN(C)C [PMDETA, N,N,N′,N″,N″-Pentamethydiethylenetriamine]
[2]
  pKa: 9.1
